This note sets out measurements from the COVID Moonshot data (paper PMC11187573), “Identification of SARS-CoV-2 Mpro inhibitors through deep reinforcement learning for de novo drug design and computational chemistry approaches” (RSC Medicinal Chemistry, 2024).

SMILES strings stand for the structures. pIC50: −log10 of the molar value.

The term pIC50 denotes the negative decadic logarithm of the IC50, by convention in mol/L. As usually defined, the inhibition is the drop in the measured response relative to a control, in per cent.

The target of assay [1] is SARS-CoV-2 Main Protease (SARS-CoV-2) (UniProt P0DTD1).
Assay [2] shares this target. The source holds these as a separate data set.

On to `CCN(c1ccccc1)S(=O)(=O)c1ccc(OC)c(NC(=O)CCl)c1`, for which, in assay [1], the negative logarithm of the IC50 (pIC50) was 5.16. Also, the inhibition in assay [1] (50.0 µM) stood at 61.2%.
In assay [1], `O=C(Nc1cncc2ccccc12)[C@@H]1COc2ccc(Cl)cc2C1` (stereo in doubt) had a pIC50 of 5.45.
On the same count and under the same terms, with `Cc1ccncc1NC(=O)Cc1cc(Cl)cc(NC2CC2C(F)(F)F)c1` (configuration not stated) the figure was 4.70; with `O=C(NCC1=[SH]C=CC1)[C@@H](c1ccccc1)N1Cc2ccccc2C1=O` (stereo in doubt), 4.09.
On the same count and under the same terms, the value for `CCC(=O)Nc1ccc(N(Cc2cscn2)C(=O)Cn2nnc3ccccc32)cc1` was 4.34; that for `Cc1cc(C(F)(F)F)nc2c1c(N)nn2C(=O)C1CCOc2ccc(Cl)cc21` (configuration not stated) was 4.24.
As to `CC(=O)N1CCN(Cc2cccs2)CC1`, the inhibition amounted to 96.7% in assay [1] (20.0 µM) and 95.7% in assay [1] (50.0 µM).
Regarding `Cc1ccncc1NC(=O)Cc1cc(Cl)cc(OCc2cc(-c3ccc(Cl)cc3)no2)c1`, the negative-log IC50 (pIC50) in assay [1] is 4.31. In assay [1] (50.0 µM), the inhibition was determined as 41.8%.
With `CC(=O)O[C@@H]1OC2OC(=O)[C@H](C)C3=C([C@@]4(C)CCCC(C)(C)C4)CCC1C32` (stereo in doubt), the inhibition in assay [1] (50.0 µM) was found to be 0%.
The molecule `COc1ccc2c(NC(=O)Cc3cccc(Cl)c3)[nH]nc2c1` showed a pIC50 in assay [1] of 4.28.
As for `O=C(CN(C(=O)Cc1cccnc1)c1ccc(-c2ncccn2)cc1)N1CCNCC1`, the inhibition in assay [1] (50.0 µM) was determined as 0%.
On the same count and under the same terms, with `O=C(O)c1cn(-c2ccc(F)cc2)c2cc(N3CCNCC3)c(F)cc2c1=O` the figure was 20%.
For the molecule `C[C@@H]1C[C@H](C(=O)Nc2cncc3ccccc23)c2cc(Cl)ccc2O1` (stereo in doubt), the negative-log IC50 (pIC50) in assay [1] is 5.58.
Turning to `Cc1cc(C(=O)CCl)c(C)n1NC(=O)c1n[nH]c(=O)c2ccccc12`, in assay [1] (50.0 µM), the inhibition amounted to 42.3%.
In assay [1], `COc1cccc(C2=N/C(=C/c3sccc3C)C(=O)O2)c1` had a pIC50 of 5.29. Also, the inhibition in assay [1] (50.0 µM) worked out at 77.6%.
In turn, `Cc1ccc(N(Cc2cscn2)C(=O)Cc2cncc3ccccc23)cc1` had a pIC50 in assay [1] of 4.87.
`O=C(Nn1nnc2ccccc21)C(Cc1cccc(Cl)c1)c1ccc(N2CCCCC2=O)cc1` (configuration not stated): the negative logarithm of the IC50 (pIC50) in assay [1] is 4.09.
With `N#Cc1ncn(CC(=O)Nc2ccc(Br)cc2Cl)n1`, in assay [1], the pIC50 was 5.54.
The same measure, in the same setting: with `Cc1ccncc1NC(=O)Cc1cc(Cl)cc(NCC(C)(C)C#N)c1` the figure was 4.48.
Molecule `Cc1ccncc1NC(=O)Cc1cc(Cl)cc(NS(N)(=O)=O)c1` had a pIC50 in assay [1] of 4.84. In assay [1] (50.0 µM), the inhibition was found to be 87.9%.
For the molecule `CC(C)(C)c1ccc(N(C(=O)c2ccco2)[C@@H](C(=O)NCCc2cccc(F)c2)c2cccnc2)cc1`, in assay [1] (50.0 µM), the inhibition was found to be 100%.
In assay [1], `CN(C)c1ccc(N(Cc2cccc(Cl)c2)C(=O)Cn2nnc3ccccc32)cc1` had a negative-log IC50 (pIC50) of 6.41.
In turn, `Cc1ccncc1NC(=O)Cc1cc(Cl)cc(S(N)(=O)=O)c1` had a negative-log IC50 (pIC50) in assay [1] of 4.88. Also, in assay [1] (50.0 µM), the inhibition turned out to be 64%.
The like results for `Cc1c(C(=O)CCl)c2ccccn2c1C(=O)c1ccc(F)cc1` were, in that order, 6.15 and 94.7%.
Consider `COc1ccc2c(N)nn(C(=O)C3CCOc4ccc(Cl)cc43)c2c1` (configuration not stated), for which, in assay [1], the pIC50 was 4.21.
For `C[C@@H]1C[C@@H](C(=O)Nc2cncc3ccccc23)c2cc(Cl)ccc2O1` (stereo in doubt), in assay [1], the negative logarithm of the IC50 (pIC50) is 6.28.
On to `COc1cc(COc2cc(Cl)cc(CC(=O)Nc3cnccc3C)c2)ccc1OC(F)F`, for which, in assay [1], the negative-log IC50 (pIC50) was 5.13.
The same measure, in the same setting: the value for `CN(C)c1ccc(N(Cc2ccn[nH]2)C(=O)Cn2nnc3ccccc32)cc1` was 4.04.
On to `O=C(Cc1cccc(Cl)c1)Nc1cnccc1-c1ccccc1`, for which, in assay [1], the pIC50 was 4.60.
On the same count and under the same terms, the value for `O=C(c1cc(=O)[nH]c2ccccc12)N1CCN(c2cccc(Cl)c2)C(=O)C1` was 5.02.
For `CC(C)[C@H](NC(=O)OCc1ccccc1)C(=O)NC(C=O)Cc1ccccc1` (stereo in doubt), in assay [1] (50.0 µM), the inhibition was found to be 0%.
With `COc1ccc2c(NC(=O)C3CCOc4ccc(Cl)cc43)noc2c1` (configuration not stated), the pIC50 in assay [1] is 4.27.
Still for that read-out and setting: the value for `O=C(Nc1cccnc1)[C@@H](c1ccccc1)N1Cc2ccccc2C1=O` (stereo in doubt) was 4.22.
Consider `OC[C@H]1O[C@H]([S][Au])[C@H](O)[C@@H](O)[C@@H]1O` (stereo in doubt), for which the inhibition in assay [1] (50.0 µM) worked out at 83.1%.
For `Cc1cc(O)c2c3c(ccc2c1)C(=O)c1c(O)cccc1C3=O`, the inhibition in assay [1] (50.0 µM) came to 5%.
For `C=CC(=O)N(c1cc(C(C)(C)C)on1)C(C(=O)NCCc1cccc(F)c1)c1cncc(C#N)c1` (configuration not stated), in assay [1], the negative logarithm of the IC50 (pIC50) was 4.98.
The same measure, in the same setting: the value for `CCCCN1C(=O)C(=O)c2cc(Br)cc(C)c21` was 4.24.
In turn, `O=C(Cn1nnc2ccccc21)Nc1cccc(Cl)c1` showed a pIC50 in assay [1] of 4.53. For the same molecule, the inhibition in assay [1] (50.0 µM) came to 55.1%.
`O=C(Nc1n[nH]c2ccnc(Br)c12)C1CCOc2ccc(Cl)cc21` (configuration not stated) showed a pIC50 in assay [1] of 4.13.
In the case of `COc1ccc2c(=O)cc(-c3ccc(OCc4ccccc4)cc3)oc2c1`, the inhibition in assay [1] (50.0 µM) stood at 10.7%.
Still for that read-out and setting: the value for `Cc1ccncc1NC(=O)Cc1cc(Cl)cc(OCc2n[nH]c3ccccc23)c1` was 9.6%.
On the same count and under the same terms, the value for `O=C(Cc1cccc(Cl)c1)N[C@H]1CCNC1=O` (stereo in doubt) was 0%; that for `CN(CC(=O)Nc1ccccc1Br)C(=O)CCl` was 52.3%.
In the case of `Cc1ccncc1NC(=O)Cc1cc(Cl)cc(C2COC2)c1`, the pIC50 in assay [1] is 4.24.
Still for that read-out and setting: the value for `Cc1ccncc1NC(=O)Cc1cc(C#N)cc(OC2CC(=O)N2)c1` (configuration not stated) was 5.06.
Take `Cc1oncc1C(=O)Nc1ccc(S(F)(F)(F)(F)F)cc1`: the inhibition in assay [1] (50.0 µM) worked out at 0%.
`Cc1ccncc1NC(=O)C(C)c1cc(Cl)cc(OC2CC(=O)N2)c1` (configuration not stated) showed a pIC50 in assay [1] of 4.06.
Still for that read-out and setting: the value for `O=C(Cc1cccc(Cl)c1)Nc1cncc2c1CCCC2` was 5.73; that for `O=C(Nc1cc(=O)[nH]c2ccccc12)C1CCOc2ccc(Cl)cc21` (configuration not stated) was 4.32; that for `Nc1nn(C(=O)C2CCOc3ccc(Cl)cc32)c2ccncc12` (configuration not stated) was 4.02.
The molecule `COc1cccc2[nH]c(=O)cc(C(=O)N3CCN(c4cccc(Cl)c4)CC3)c12` gave a pIC50 in assay [1] of 5.73.
The molecule `CC(C)(C)c1ccc(N(C(=O)c2cn[nH]c2)C(C(=O)NCCc2cccc(F)c2)c2cccnc2)cc1` (configuration not stated) showed a pIC50 in assay [1] of 5.32. In addition, the inhibition in assay [1] (50.0 µM) was found to be 100%.
Regarding `O=C(Nc1cncc2ccccc12)[C@H]1COc2ccc(Cl)cc2C1` (stereo in doubt), the negative-log IC50 (pIC50) in assay [1] is 4.42.
`O=C(Cn1nnc2ccccc21)N(Cc1ccsc1)c1ccc(N2CCCCC2)cc1`: in assay [1], the pIC50 was 5.20.
In the case of `O=c1c(O)c(-c2cc(OCc3ccccc3)ccc2OCc2ccccc2)oc2ccccc12`, the inhibition in assay [1] (50.0 µM) was 0.254%.
Take `CC(=O)Nc1cccc(N2CCCC2=O)c1`: the results for the inhibition in assay [1] (20.0 µM) and in assay [1] (50.0 µM) were 11.4% and 22.7%, respectively.
As for `O=C(c1cc(=O)[nH]c2ccccc12)N1CCN(Cc2cccc(Cl)c2)CC1`, the inhibition in assay [1] (50.0 µM) worked out at 50.9%.
On the same count and under the same terms, the value for `CC(C)(C)C(=O)C(C#N)C(=O)Nc1ccc(Cl)cc1` (configuration not stated) was 0%.
As for `COc1cc(Cl)cc2c1OCC[C@@H]2C(=O)Nc1cncc2ccccc12` (stereo in doubt), in assay [1], the negative logarithm of the IC50 (pIC50) was 4.99.
`CC(=O)N1CCN(Cc2ccsc2)CC1`: the figures for the inhibition in assay [1] (20.0 µM) and in assay [1] (50.0 µM) were 98.5% and 97.4%, respectively.
Molecule `O=C(Nc1cccc(F)c1)[C@@H](c1ccccc1)N1Cc2ccccc2C1=O` (stereo in doubt) showed a negative-log IC50 (pIC50) in assay [1] of 4.22.
`O=C(Nc1cncc2ccccc12)C1(CCC2CC2)CCOc2ccc(Cl)cc21` (configuration not stated) had a negative-log IC50 (pIC50) in assay [1] of 4.03.
Same read-out and setting: with `O=C(Nc1c[nH]c(=O)c2ccccc12)C1CCOc2ccc(Cl)cc21` (configuration not stated) the figure was 4.08.
On to `Cc1cc(O)c2c(c1)C1(O)CC(C2=O)C2=C1C(=O)c1c(O)cccc1C2=O` (configuration not stated), for which the pIC50 in assay [1] is 4.24. In assay [1] (50.0 µM), the inhibition was found to be 81.1%.
The molecule `CCCCOc1ccc(Cl)cc1CC(=O)Nc1cnccc1C` had a pIC50 in assay [1] of 4.80.
The molecule `Cc1ccncc1NC(=O)Cc1cc(Cl)cc(OCc2nnc(C3CCCCC3)o2)c1` showed a pIC50 in assay [1] of 4.88. Moreover, in assay [1] (50.0 µM), the inhibition was found to be 100%.
In assay [1], `O=C(Cc1cccc(Cl)c1)Nc1cncc2c1CCCN2` gave a negative-log IC50 (pIC50) of 5.39.
On to `CC(C)(C)c1ccc(N(C(=O)c2ccco2)[C@H](C(=O)NCCc2cccc(F)c2)c2cccnc2)cc1`, for which the inhibition in assay [1] (50.0 µM) came to 100%.
In turn, `O=C(Cn1nnc2ccccc21)N(Cc1ccsc1)c1ccc(N2CCOCC2)cc1` gave a negative logarithm of the IC50 (pIC50) in assay [1] of 4.67.
Molecule `Cc1cc(C(=O)CCl)c(C)n1CC1COc2ccccc2O1` (configuration not stated) gave a pIC50 in assay [1] of 5.38. In assay [1] (50.0 µM), the inhibition was determined as 82.2%.
Regarding `O=c1cc(-c2ccc(OCc3ccccc3)cc2)oc2ccccc12`, in assay [1] (50.0 µM), the inhibition amounted to 35.9%.
The molecule `Cc1ccncc1NC(=O)Cc1cc(Cl)cc(/C=C(/c2ccccc2)C(F)(F)F)c1` gave a negative logarithm of the IC50 (pIC50) in assay [1] of 4.81.
Still for that read-out and setting: with `Cc1ccncc1NC(=O)Cc1cc(Cl)cc(-c2ccc(C3(C)CCO3)cc2)c1` (configuration not stated) the figure was 4.82.
In the case of `CN(Cc1cccc2ccccc12)c1cc(Cl)cc(CC(=O)Nc2cncc3ccccc23)c1`, the pIC50 in assay [2] is 5.76.
Take `Cc1ccn2cnnc2c1NC(=O)C1CCOc2ccccc21` (configuration not stated): the inhibition in assay [2] (20.0 µM) was -11.2%; in assay [2] (50.0 µM) it was -4.74%.
With `COc1cc(Br)ccc1Nc1cc(Cl)cc(CC(=O)Nc2cncc3ccccc23)c1`, the negative-log IC50 (pIC50) in assay [2] was 5.86.
`O=C(COc1ccccc1F)Nc1ncnc2[nH]cnc12`: the figures for the inhibition in assay [2] (20.0 µM) and in assay [2] (50.0 µM) were -6.54% and -3.69%, respectively.
Regarding `CCOC(=O)c1ccc(NC(=O)Nc2cn(C)c(=O)c3ccccc23)cc1`, the inhibition in assay [2] (20.0 µM) was 17.1%; in assay [2] (50.0 µM) it was 4.9%.
The corresponding values for `CC(C)Cn1cc(NC(=O)NCCC2=CCCCC2)c2ccccc2c1=O` are 25.7% and 0.931%.
On to `Cc1ccncc1NC(=O)N(C)c1cccc(Cl)c1`, for which the inhibition in assay [2] (20.0 µM) amounted to 17.6%; in assay [2] (50.0 µM) it was 33.8%.
The like results for `COc1ccc(NC(=O)Nc2cn(C)c(=O)c3ccccc23)c(OC)c1` were, in that order, 7.06% and 17.9%.
The like results for `CCCCN(CCNC(=O)Nc1cn(C)c(=O)c2ccccc12)Cc1ccco1` were, in that order, 6.22% and 12.5%.
With `NCc1cn(CC(=O)N(Cc2ccsc2)c2ccc(N3CCOCC3)cc2)nn1`, the inhibition was -4.16% in assay [2] (20.0 µM) and -1.29% in assay [2] (50.0 µM).
The like results for `O=C(Nc1nncn1C1CC1)C1CCOc2ccccc21` (configuration not stated) were, in that order, -1.27% and 2.15%.
